According to ChEMBL document CHEMBL3832761, “MMV Pathogen Box Bioactivity Data” (2017):

Columns and labels:
[1] = test system: Brugia pahangi; test: AntiBrugia pahangi activity Average day 3 IC50 (uM); assay type: functional, organism-based; conditions: 72 h
[2] = test system: Onchocerca gutturosa; test: AntiOnchocerca activity O. gutturosa adult males: Motility reduction at 12.5 uM (%); assay type: functional; set-up: scale not given: the % may be the effect or the level left
[3] = test system: Onchocerca lienalis; test: AntiOnchocerca activity O. lienalis microfilariae Motility reduction (%); assay type: functional; set-up: concentration or dose not given beside the values
[4] = HL60 CC50 (uM) Cytotoxicity; assay type: functional; conditions: HL-60
[5] = test system: Onchocerca ochengi; test: AntiOnchocerca activity O. ochengi adult females: final mean inhibition motility at 10 uM on Day 7 (%); assay type: functional
[6] = test system: HepG2; test: Cytotoxicity data HepG2 CC20 (uM); assay type: functional
[7] = test system: Onchocerca volvulus; test: AntiOnchocerca activity O. volvulus L3 Molting assay: inhibition at 10 uM (%); assay type: functional
[8] = test system: Onchocerca gutturosa; test: AntiOnchocerca activity O. gutturosa adult males: MTT reduction at 12.5 uM (%); assay type: functional; set-up: scale not given: the % may be the effect or the level left
[9] = test system: Onchocerca ochengi; test: AntiOnchocerca activity O. ochengi adult males: final mean inhibition motility at 10 uM on Day 5 (%); assay type: functional
[10] = test system: Brugia pahangi; test: AntiBrugia pahangi activity Average inhibition motility at 10 uM (%); assay type: functional
[11] = test system: Dengue virus; test: AntiDengue activity HCI DV4/A549 IC50 (uM); assay type: functional, organism-based
[12] = AntiChikungunya activity HCI CHIKV/Huh7 IC50 (uM); assay type: functional, Chikungunya virus
[13] = test system: Dengue virus; test: AntiDengue activity HCI DV2/A549 IC50 (uM); assay type: functional, organism-based
[14] = test system: HepG2; test: HepG2 CC50 (uM) Cytotoxicity; assay type: functional; conditions: Homo sapiens
[15] = test system: Dengue virus; test: AntiDengue activity HCI DV2/Huh7 IC50 (uM); assay type: functional, organism-based; conditions: Huh-7
[16] = test system: A549; test: A549 CC50 (uM) Cytotoxicity; assay type: functional; conditions: Homo sapiens
[17] = HUH7 CC50 (uM) Cytotoxicity; assay type: functional; conditions: Huh-7
[18] = test system: Dengue virus; test: AntiDengue activity HCI DV3/A549 IC50 (uM); assay type: functional, organism-based
[19] = test system: Dengue virus; test: AntiDengue activity HCI DV1/A549 IC50 (uM); assay type: functional, organism-based
[20] = test system: Onchocerca gutturosa; test: AntiOnchocerca activity O. gutturosa adult males: EC50 (uM); assay type: functional, organism-based
[21] = test system: Wolbachia; test: Anti-Wolbachia activity Reduction in Wolbachia infected cells at 10 uM (%); assay type: functional, cell-based; set-up: Activity: scale not given: the % may be the effect or the level left
[22] = test system: Onchocerca volvulus; test: AntiOnchocerca activity O. volvulus L3 Molting assay: IC50 (uM); assay type: functional, organism-based
[23] = test system: Onchocerca lienalis; test: AntiOnchocerca activity O. lienalis microfilariae EC50 (uM); assay type: functional, organism-based
[24] = test system: Ancylostoma ceylanicum; test: microbe, parasite or virus in culture
[25] = test system: Ancylostoma ceylanicum; test: microbe, parasite or virus in culture; remark: listed apart in the source
[26] = test system: Toxoplasma gondii; test: AntiToxoplasma gondii activity data 2-day killing assay: IC50 (uM), Experiment F; assay type: functional, organism-based
[27] = test system: Toxoplasma gondii; test: AntiToxoplasma gondii activity data 2-day killing assay: inhibition at 10 uM (%) Experiment C; assay type: functional; conditions: 48 h
[28] = test system: CHO; test: CHO CC50 (uM) Cytotoxicity; assay type: functional; conditions: Cricetulus griseus
[29] = test system: Toxoplasma gondii; test: AntiToxoplasma gondii activity data Inhibition of plaque forming efficiency (%) Experiment A; assay type: functional; set-up: concentration or dose not given beside the values
[30] = test system: Toxoplasma gondii; test: AntiToxoplasma gondii activity data 2-day killing assay: IC50 (uM), Experiment G; assay type: functional, organism-based
[31] = test system: Toxoplasma gondii; test: AntiToxoplasma gondii activity data 2-day killing assay: inhibition at 10 uM (%) Experiment E; assay type: functional
[32] = test system: Toxoplasma gondii; test: AntiToxoplasma gondii activity data 2-day killing assay: inhibition at 10 uM (%) Experiment D; assay type: functional
[33] = test system: Toxoplasma gondii; test: AntiToxoplasma gondii activity data Inhibition of plaque forming efficiency (%) Experiment B; assay type: functional; set-up: concentration or dose not given beside the values
[34] = test system: Brugia malayi; test: AntiBrugia malayi activity Effect on motility; assay type: functional, organism-based
[35] = Toxoplasma gondii, 48 h, read-out: IC50

In the case of `O=C(Nc1nnc(S)s1)c1cc(Br)ccc1Cl`, the IC50 [1] is reported as 9.4 µM, the Activity [2] is reported as 29% and the Activity [3] is reported as 27%. The CC50 [4] was > 50 µM, the Inhibition [5] was 4% and the CC20 [6] was >80 µM. The Inhibition [7] was 36%, the Activity [8] was 0% and the Inhibition [9] was 0%. For the same compound, the Inhibition [10] was 69%.

For `OC[C@H]1O[C@@H](n2c3ccc(Cl)cc3c3c(-c4cc5ccccc5o4)ncnc32)C(O)[C@H]1O` (stereo not given in full), the IC50 [11] was 3 µM, the IC50 [12] was > 50 µM and the IC50 [13] was 7 µM. The CC50 [14] was 10 µM, the IC50 [15] was > 50 µM and the CC50 [16] was > 50 µM. For the same compound, the CC50 [17] was 1 µM, the IC50 [18] was 3 µM and the IC50 [19] was 5 µM.

For `COC(=O)c1ccc(F)cc1NS(=O)(=O)c1cccc(-c2cnn(Cc3ccccc3)c2)c1`, the IC50 [11] was > 50 µM, the IC50 [12] was 10 µM and the IC50 [13] was 6 µM. The CC50 [14] was 10 µM, the IC50 [15] was 10 µM and the CC50 [16] was > 50 µM. For the same compound, the CC50 [17] was 20 µM, the IC50 [18] was > 50 µM and the IC50 [19] was 5 µM.

`CC(C)(C)OC(=O)N1CCN(c2nccc(-c3ccc(-c4ccc(Cl)cc4)s3)n2)CC1` showed an IC50 [11] of 3 µM, an IC50 [12] of 10 µM and an IC50 [13] of 7 µM. For the same compound, the CC50 [14] was > 50 µM, the IC50 [15] was > 50 µM and the CC50 [16] was > 50 µM. For the same compound, the CC50 [17] was > 50 µM, the IC50 [18] was 2 µM and the IC50 [19] was 7 µM.

For `COC(=O)C1=C(C)NC(C)=C(C(=O)OC(C)C)C1c1cccc2nonc12` (stereo not given) [ISRADIPINE], the Activity [2] was 100%, the Activity [3] was 53% and the CC20 [6] was 66 µM. It also gave an Activity [8] of 79% and an EC50 [20] of 0.89 µM.

`CCc1nc2ccc(C(=O)NCc3ccc4c(c3)OCO4)cn2c1N(C)Cc1cccs1` showed a CC20 [6] of 18.6 µM and an Activity [21] of 45%.

In the case of `CC(=O)N(CCN(C(=O)c1ccc(F)cc1)c1ccccc1)c1ccccc1`, the Activity [2] is reported as 42.9%, the Activity [3] is reported as 13.3% and the CC50 [4] is reported as > 50 µM. It also gave an Inhibition [5] of 4%, an IC50 [22] of 3.13 µM and a CC20 [6] of 39 µM. The Inhibition [7] was 100%, the Activity [8] was 0% and the Inhibition [9] was 0%. It also gave an Inhibition [10] of 4%.

With `CC(C)(C)C(=O)N(CCCCCCN1C[C@H](O)[C@@H](O)[C@H](O)[C@H]1CO)C1CCCCCC1` the IC50 [11] was 0.2 µM, the IC50 [12] was > 50 µM and the IC50 [13] was 0.6 µM. The CC50 [14] was > 50 µM, the IC50 [15] was 2 µM and the CC50 [16] was > 50 µM. The CC50 [17] was > 50 µM, the IC50 [18] was 0.08 µM and the IC50 [19] was 0.07 µM.

In the case of `Cc1[nH]c2cc(F)cc(F)c2c(=O)c1-c1ccc(Oc2ccc(OC(F)(F)F)cc2)cc1`, the Activity [2] is reported as 58.9%, the Activity [3] is reported as 100% and the CC20 [6] is reported as >80 µM. For the same compound, the Activity [8] was 56.9%, the EC50 [20] was 2.91 µM and the EC50 [23] was 1.37 µM.

`CN1CCCC1CCO[C@](C)(c1ccccc1)c1ccc(Cl)cc1` (stereo not given in full) gave a CC20 [6] of 9.28 µM, an inhibition at 50 µM [24] of 47% and an inhibition at 200 µM [25] of 76%.

Work on `Oc1c(I)cc(I)c2cccnc12` [IODOQUINOL] yielded an Activity [2] of 100%, an Activity [3] of 93.3% and a CC20 [6] of 2.53 µM. For the same compound, the Activity [8] was 88% and the EC50 [20] was 0.46 µM.

For `Nc1ncnc2c1c(-c1cnc3ccccc3c1)nn2CC1CCNCC1`, the IC50 [26, 35] was 6.77 µM, the inhibition at 10 µM [27] was 48.8% and the CC50 [28] was > 50 µM. It also gave an Inhibition [29] of ~60%, an IC50 [30, 35] of 7.55 µM and an Inhibition [31] of 92.8%. It also gave an Inhibition [32] of 72.3%.

With `CC(Oc1cccc(Cl)c1)C(=O)Nc1ccc2oc(-c3ccncc3)nc2c1` (stereo not given) the CC50 [4] was > 25 µM, the IC50 [26] was “no inhibition” and the inhibition at 10 µM [27] was 0%. For the same compound, the Inhibition [29] was 100%, the IC50 [30] was “no inhibition” and the Inhibition [33] was 100%. It also gave an Inhibition [31] of 81.6% and an Inhibition [32] of 85.4%.

For `CCS(=O)(=O)N(Cc1ccco1)Cc1cc2ccc(C)cc2nc1O`, the CC20 [6] was >80 µM and the Activity [21] was 52%.

For `O=C1[C@@H](Oc2ccccc2)[C@@H](c2ccc(Cl)cc2)N1CCn1cnc2c(NCc3ccccc3)ncnc21`, the IC50 [11] was 2 µM, the IC50 [12] was 6 µM and the IC50 [13] was 6 µM. For the same compound, the CC50 [14] was 3 µM, the IC50 [15] was 3 µM and the CC50 [16] was 40 µM. It also gave a CC50 [17] of 10 µM, an IC50 [18] of 4 µM and an IC50 [19] of 3 µM.

In the case of `Cc1cc(C2=NOC(c3cc(Cl)c(F)c(Cl)c3)(C(F)(F)F)C2)ccc1C(=O)NCc1ccc2c(c1)C(C)(C)OB2O` (stereo not given), the CC20 [6] is reported as 10.9 µM and the IC50 ([34]; Brugia malayi) is reported as 3.04 µM.

With `CCCCc1ccc(NC(=O)Nc2ccc(O[C@H]3CCCC[C@@H]3N(C)c3ccccc3)c(F)c2)cc1` the IC50 [1] was 8.4 µM, the Activity [2] was 14.3% and the Activity [3] was 33.3%. For the same compound, the CC50 [4] was > 6.2 µM, the Inhibition [5] was 57% and the IC50 [22] was 1.09 µM. For the same compound, the CC20 [6] was 5.77 µM, the Inhibition [7] was 100% and the Activity [8] was 0%. The Inhibition [9] was 61% and the Inhibition [10] was 61%.

Compound `CC1(C)OB(O)c2ccc(C3=NOC(c4cc(Cl)c(F)c(Cl)c4)(C(F)(F)F)C3)cc21` (stereo not given) has a CC20 [6] of 15.4 µM and an Inhibition [34] of 50%.

For `COc1ccc(N(CCc2cccc(C)n2)C(=O)C2CCCCC2)cc1`, the Activity [2] was 42.9%, the Activity [3] was 13% and the CC50 [4] was > 50 µM. For the same compound, the Inhibition [5] was 4%, the IC50 [22] was 1.34 µM and the CC20 [6] was >80 µM. For the same compound, the Inhibition [7] was 100%, the Activity [8] was 35.7% and the Inhibition [9] was 7%. It also gave an Inhibition [10] of 11%.

With `COc1cccn2c(C(=O)N3CCCCC3)c(C(F)(F)F)nc12` the CC20 [6] was >80 µM and the IC50 ([21]; Wolbachia) was 0.5 µM.
